Assay: xn = mol fraction of the nth substance listed

CC[n+]1ccn(C)c1.O=S(=O)([N-]S(=O)(=O)C(F)(F)F)C(F)(F)F + O=C1CCCO1
100 kPa, frequency 0.005 MHz
Settings | electrical conductivity [S/m]
293.15 K, x2 = 0 | 0.774
293.15 K, x2 = 0.3005 | 1.17
293.15 K, x2 = 0.5101 | 1.47
293.15 K, x2 = 0.9005 | 1.58
293.15 K, x2 = 0.95 | 1.13
298.15 K, x2 = 0.2073 | 1.19
303.15 K, x2 = 0 | 1.06
303.15 K, x2 = 0.2073 | 1.34
303.15 K, x2 = 0.3005 | 1.47
303.15 K, x2 = 0.5101 | 1.79
303.15 K, x2 = 0.7 | 2.07
303.15 K, x2 = 0.7994 | 2.09
303.15 K, x2 = 0.8498 | 2.06
303.15 K, x2 = 0.95 | 1.32
308.15 K, x2 = 0 | 1.2
308.15 K, x2 = 0.7994 | 2.25
313.15 K, x2 = 0 | 1.35
313.15 K, x2 = 0.3005 | 1.77
318.15 K, x2 = 0.2073 | 1.82
318.15 K, x2 = 0.5101 | 2.31
318.15 K, x2 = 0.95 | 1.59
323.15 K, x2 = 0.2073 | 2.04
323.15 K, x2 = 0.6 | 2.69

OC[C@@H](O)[C@@H](O)[C@H](O)[C@@H](O)CO + CCCCCCCCCCCCCCCC[N+](C)(C)C.[Br-] + O
viscosity [mPa·s], 100 kPa
Settings | 298.15 K | 308.15 K | 318.15 K
x1 = 0.0007313, x2 = 1.441e-05 | 0.921 | 0.762 | –
x1 = 0.0008985, x2 = 7.2e-06 | 0.923 | – | 0.634
x1 = 0.001226, x2 = 1.44e-05 | – | 0.774 | –
x1 = 0.001311, x2 = 2.16e-05 | 0.942 | 0.779 | 0.644
x1 = 0.001618, x2 = 1.439e-05 | 0.949 | – | 0.649
x1 = 0.001661, x2 = 2.159e-05 | 0.954 | 0.788 | 0.651
x1 = 0.001736, x2 = 7.2e-06 | 0.949 | – | 0.651
x1 = 0.001867, x2 = 7.19e-06 | – | 0.788 | 0.654
x1 = 0.001983, x2 = 2.158e-05 | 0.964 | – | 0.658
x1 = 0.00199, x2 = 1.439e-05 | 0.96 | 0.793 | 0.657
x1 = 0.00225, x2 = 2.157e-05 | 0.973 | 0.803 | 0.664
x1 = 0.002345, x2 = 7.19e-06 | 0.968 | 0.799 | 0.663
x1 = 0.002374, x2 = 1.438e-05 | 0.972 | 0.803 | 0.665
x1 = 0.002657, x2 = 1.438e-05 | 0.981 | 0.81 | 0.67
x1 = 0.002734, x2 = 7.19e-06 | 0.98 | 0.809 | 0.671
x1 = 0.002734, x2 = 2.156e-05 | 0.989 | 0.816 | 0.674

C[N+](C)(C)Cc1ccccc1.[Cl-] + CCC(O)CO
101.13 kPa, x1 = 0.5
Settings | electrical conductivity [S/m] | viscosity [mPa·s]
308 K | – | 64
323 K | 0.53 | –

C[N+]1(CCOCC[N+]2(C)CCCC2)CCCC1.O=S(=O)([N-]S(=O)(=O)C(F)(F)F)C(F)(F)F.O=S(=O)([N-]S(=O)(=O)C(F)(F)F)C(F)(F)F + CC[n+]1ccn(C)c1.N#C[N-]C#N + O=S(=O)([N-]S(=O)(=O)C(F)(F)F)C(F)(F)F.[Li+]
100 kPa, x1 = 0.1626, x2 = 0.7364
Settings | electrical conductivity [S/m]
298 K | 0.806
303 K | 1.08
313 K | 1.43
323 K | 1.82
333 K | 2.2
343 K | 2.65

CC[n+]1ccn(C)c1.F[B-](F)(F)F + OCCO
Settings | viscosity [mPa·s]
293.15 K, 100 kPa, x2 = 0.6954 | 14.9
298.15 K, 100 kPa, x2 = 0.283 | 19.8
298.15 K, 100 kPa, x2 = 0.4435 | 15.1
303.15 K, 100 kPa, x2 = 0 | 34.5
303.15 K, 101 kPa, x1 = 0.4011 | 9.88
313.15 K, 100 kPa, x2 = 0.4435 | 9.71
313.15 K, 101 kPa, x1 = 0.4011 | 7.3
323.15 K, 100 kPa, x2 = 0.4435 | 7.57
323.15 K, 100 kPa, x2 = 0.5876 | 6.34
333.15 K, 100 kPa, x2 = 0.4435 | 6.08
333.15 K, 100 kPa, x2 = 0.5237 | 5.44
333.15 K, 100 kPa, x2 = 0.8751 | 4.42
333.15 K, 101 kPa, x1 = 0.0993 | 4.28
333.15 K, 101 kPa, x1 = 0.2001 | 4.08
343.15 K, 100 kPa, x2 = 0.4435 | 5.01
343.15 K, 100 kPa, x2 = 0.5876 | 4.13
353.15 K, 100 kPa, x2 = 0 | 9.58
353.15 K, 100 kPa, x2 = 0.5876 | 3.46
353.15 K, 100 kPa, x2 = 0.6954 | 3.07
353.15 K, 100 kPa, x2 = 0.7916 | 2.9

c1ccccc1 + CCCC[n+]1ccn(C)c1.O=S(=O)([O-])C(F)(F)F
100 kPa, x1 = 1
Settings | viscosity [mPa·s]
308.15 K | 0.527
318.15 K | 0.466

CC[n+]1ccn(C)c1.F[B-](F)(F)F + CN(C)C=O
101 kPa
Settings | viscosity [mPa·s]
303.15 K, x2 = 0.2016 | 16.52
313.15 K, x2 = 0 | 20.41
313.15 K, x2 = 0.3987 | 7.35
313.15 K, x2 = 0.5005 | 5.397
313.15 K, x2 = 0.7997 | 1.806
323.15 K, x2 = 0 | 15.35
323.15 K, x2 = 0.2994 | 7.73
323.15 K, x2 = 0.5005 | 4.475
323.15 K, x2 = 0.6004 | 3.226
323.15 K, x2 = 0.8999 | 1.01

CC(O)C(=O)[O-].C[N+](C)(C)CCO + O
101 kPa
Settings | viscosity [mPa·s]
293.15 K, x2 = 0.0272 | 5800
293.15 K, x2 = 0.5026 | 174.9
293.15 K, x2 = 0.7993 | 26.26
293.15 K, x2 = 0.8998 | 7.312
298.15 K, x2 = 0 | 559
298.15 K, x2 = 0.4038 | 187.4
298.15 K, x2 = 0.5858 | 87.96
298.15 K, x2 = 0.7993 | 20.92
303.15 K, x2 = 0.0992 | 308.5
308.15 K, x2 = 0.3008 | 144.2
308.15 K, x2 = 0.8998 | 4.497
313.15 K, x2 = 0.8998 | 3.897
318.15 K, x2 = 0.7993 | 9.616
323.15 K, x2 = 0.701 | 15.61
323.15 K, x2 = 0.7993 | 8.175
328.15 K, x2 = 0.7993 | 7.029
333.15 K, x2 = 0.2048 | 52.54
333.15 K, x2 = 0.3008 | 43.97
333.15 K, x2 = 0.701 | 11.18
348.15 K, x2 = 0.8998 | 1.767
353.15 K, x2 = 0.0992 | 30
353.15 K, x2 = 0.7993 | 3.729
353.15 K, x2 = 0.8998 | 1.614

C=CC[n+]1ccn(C)c1.O=S(=O)([N-]S(=O)(=O)C(F)(F)F)C(F)(F)F + CCCO
298.15 K, 100 kPa
Settings | viscosity [mPa·s]
x1 = 0.2 | 5.11
x1 = 0.5 | 10.41
x1 = 0.7 | 16.23
x1 = 0.8 | 20.34
x1 = 0.9 | 25.56

CCC(O)CO (stereo not given) + CCCC[N+](C)(C)C.O=S(=O)([N-]S(=O)(=O)C(F)(F)F)C(F)(F)F
Settings | viscosity [mPa·s]
328.15 K, 101 kPa, x1 = 1 | 10.3

CC[n+]1ccn(C)c1.F[B-](F)(F)F + CC1COC(=O)O1
298 K, 101 kPa
Settings | electrical conductivity [S/m]
x2 = 0.16 | 1.5
x2 = 0.83 | 1.68
x2 = 0.89 | 1.46

CC[n+]1ccn(C)c1.F[B-](F)(F)F + CC(=O)N(C)C
Settings | electrical conductivity [S/m] | viscosity [mPa·s]
283.15 K, 100 kPa, x1 = 0.0006798 | 0.03925 | –
288.15 K, 100 kPa, x1 = 0.001378 | 0.07985 | –
298.15 K, 100 kPa, x1 = 0.0004953 | 0.03615 | –
303.15 K, 101 kPa, x2 = 0 | – | 28
303.15 K, 101 kPa, x2 = 0.1998 | – | 18.05
303.15 K, 101 kPa, x2 = 0.6 | – | 5.678
303.15 K, 101 kPa, x2 = 0.6996 | – | 3.833
303.15 K, 101 kPa, x2 = 0.8001 | – | 2.499
313.15 K, 100 kPa, x1 = 0.0006798 | 0.05765 | –
313.15 K, 101 kPa, x2 = 0.5005 | – | 6.172
313.15 K, 101 kPa, x2 = 0.6 | – | 4.493
323.15 K, 101 kPa, x2 = 0 | – | 15.35
323.15 K, 101 kPa, x2 = 0.2995 | – | 8.36
333.15 K, 101 kPa, x2 = 0.2995 | – | 6.91
333.15 K, 101 kPa, x2 = 0.3989 | – | 5.375

CC[n+]1ccn(C)c1.F[B-](F)(F)F + O
298 K, 101 kPa
Settings | electrical conductivity [S/m]
x2 = 0.78 | 8.27
x2 = 0.84 | 8.63

CC[n+]1ccccc1.[Cl-] + CC[n+]1ccccc1.[Br-]
101 kPa
Settings | viscosity [mPa·s]
418.1 K, x1 = 0.196 | 9.57
418.1 K, x1 = 0.613 | 9.2
423.1 K, x1 = 0.196 | 8.73
423.1 K, x1 = 0.303 | 8.64
423.1 K, x1 = 0.613 | 8.37
423.1 K, x1 = 0.885 | 8.17
428.1 K, x1 = 0.303 | 7.88
428.1 K, x1 = 0.688 | 7.61
433.1 K, x1 = 0.503 | 7.14
438.1 K, x1 = 0.613 | 6.53

CCCCCCCC[N+](CCCCCCCC)(CCCCCCCC)CCCCCCCC.[Br-] + CCCCCC(=O)O
Settings | electrical conductivity [S/m]
298.1 K, 100 kPa, x1 = 0.333 | 4.5e-06

CC[n+]1ccn(C)c1.COP(=O)([O-])OC + CO
101 kPa
Settings | viscosity [mPa·s]
298.15 K, x2 = 0.598 | 20.62
318.15 K, x2 = 0.799 | 3.265
328.15 K, x2 = 0.399 | 20.82
333.15 K, x2 = 0.399 | 18.06

CO + CCCC[n+]1ccn(C)c1.F[B-](F)(F)F
101 kPa, x1 = 1
Settings | viscosity [mPa·s]
303.15 K | 0.519
333.15 K | 0.363

COCCCC[n+]1ccn(C)c1.NCC(=O)[O-] + CS(C)=O
100 kPa
Settings | viscosity [mPa·s]
288.15 K, x1 = 0.4986 | 49.18
293.15 K, x1 = 0.4986 | 37.24
293.15 K, x1 = 0.6006 | 51.07
293.15 K, x1 = 0.7941 | 84.3
298.15 K, x1 = 0.7941 | 65.57
298.15 K, x1 = 1 | 97.2
303.15 K, x1 = 0.1009 | 4.18
303.15 K, x1 = 0.299 | 10.12
308.15 K, x1 = 0.1009 | 3.59
308.15 K, x1 = 0.299 | 8.41
308.15 K, x1 = 0.701 | 34.9
318.15 K, x1 = 0.1009 | 2.72

OCCCCCCO + C[N+](C)(C)Cc1ccccc1.[Cl-]
101.13 kPa, x2 = 0.5
Settings | electrical conductivity [S/m] | viscosity [mPa·s]
298 K | 0.084 | –
308 K | – | 73

C[N+](C)(C)Cc1ccccc1.[Cl-] + O
electrical conductivity [S/m], 101.3 kPa, frequency 0.001 MHz
Settings | 298.15 K | 308.15 K | 318.15 K
x1 = 1.802e-05 | 0.0137 | 0.0183 | 0.0233
x1 = 5.406e-05 | 0.0295 | 0.0398 | 0.0456
x1 = 9.009e-05 | 0.0457 | 0.0565 | 0.0643

viscosity [mPa·s]
Settings | 298.15 K | 303.15 K | 308.15 K | 318.15 K
100 kPa, x1 = 0.0004874 | – | 0.813 | – | –
101.3 kPa, x1 = 1.802e-05 | 0.88 | – | – | 0.611
101.3 kPa, x1 = 5.406e-05 | – | – | 0.747 | 0.627
101.3 kPa, x1 = 9.009e-05 | 0.914 | – | 0.766 | 0.646
